Entries after “also recorded” stand apart in the source; their conditions may differ.

The test system of assay [1] is HSP105, HSP70, pHER2, total HER2 and EGR4-S expression. The experiment in a line: Western blot after treatment with cell stress activating compounds (FIG. 4E). It is filed as cell-based. How it is done:
The MCF10A cell line was obtained from the A.T.C.C. (Manassas, VA, U.S.A.) and cultured as described previously (Debnath et al., 2003). T47D cells, SkBr3 cells, Hs578T and HEK-293T cells were cultured as described by Nguyen et al (2013). MDA-361, ZR75-1, BT-474, MDA-453, MDA-468, MDA-231, BT549 and MCF7 cells were cultured in Dulbecco's Modified Eagle's medium supplemented with 10% (v/v) fetal bovine serum and 1% (w/v) penicillin/streptomycin. In addition, MCF7 growth media was supplemented with 10 ng/ml insulin. All stable cell lines were generated by retroviral or lentiviral transduction as per Debnath et al. (2003). Viral stocks were generated by transient transfection of appropriate viral packaging vectors into the HEK-293T cell line as described by Lang and colleagues (2012). Drugs/compounds used for treating the cells were purchased from commercial sources, including Lapatinib, Erlotinib, Gefinitib and AUY922 from Sigma, and Sulfurophane from Santa Cruz Biotechnology. HSF1-targeted shRNAmir (microRNA-adapted short hairpin RNA) vectors were constructed as described previously (Lang et al., 2012). EGR4-targeted shRNAmir were purchased from Millenium Science.
(§1) Generation of protein lysates from cells was performed according to a previously published protocol (Price et al., 2005). Equal concentrations of protein lysates were combined with loading buffer (Invitrogen) and sample reducing agent (Invitrogen), denatured for 5 minutes at 95° C. then separated through gel electrophoresis in a 4-to-12% Bis-Tris NuPAGE gel (Invitrogen) with 1×MES buffer (Invitrogen) and antioxidant (Invitrogen). Following separation, the proteins were electrophoretically transferred onto nitrocellulose membranes using the iBlot western detection stack/iBlot dry blotting system (Thermofisher) for seven minutes at 23V. All membranes were then processed at room temperature overnight using the […] (Thermofisher) containing primary antibodies, iBind wash solution and horseradish peroxidase-conjugated secondary antibodies. Blots were developed using Clarity Western ECL (Bio-RAD), and images were captured using a Fusion FX imaging machine (Vilber). All antibodies were purchased from commercial sources and included, anti-HSF1 (catalogue number SPA-901), anti-HSP27 (catalogue number SPA-800) and anti-HSP90a (catalogue number SPA-835) antibodies from Enzo Life Sciences; anti-HSP105/110 (catalogue number Sc-6241) antibody from Santa Cruz Biotechnology; anti-Ha-Ras (catalogue number 05-775) antibody from Merck Millipore; anti-actin (catalogue number MS-1295-P0) and anti-HSP70i (catalogue number MS-482-P0) antibodies from Thermo Scientific; anti-p53 (catalogue number 51-9002046) from BD Pharmingen; anti-pHER2/ErbB2 (catalogue number Ab53290), anti-pAkt (catalogue number MISCGENLAB), anti-pEGFR catalogue number SCZSC-12351), anti-total EGFR catalogue number SCZSC-120) from Abcam, anti-total Akt (catalogue number 9272) and anti-HER2/ErbB2 (catalogue number Ab134182) from Cell Signalling, anti-EGR4 (catalogue number AV38090) (Sigma), anti-EGR4 (catalogue number PA5-50496) (Thermofisher), and anti-EGR4 (catalogue number SC133540) (Santa Cruz).

Assay [2] deals with HER signalling pathway (pHER2, pAKT, EGR4-S) in HER2+ breast cancer cells. The conditions noted are these: for EGR4-S expression: increasing drug concentrations, FIG. 3.
Procedure: Generation of protein lysates from cells was performed according to a previously published protocol (Price et al., 2005). Equal concentrations of protein lysates were combined with loading buffer (Invitrogen) and sample reducing agent (Invitrogen), denatured for 5 minutes at 95° C. then separated through gel electrophoresis in a 4-to-12% Bis-Tris NuPAGE gel (Invitrogen) with 1×MES buffer (Invitrogen) and antioxidant (Invitrogen). Following separation, the proteins were electrophoretically transferred onto nitrocellulose membranes using the iBlot western detection stack/iBlot dry blotting system (Thermofisher) for seven minutes at 23V. All membranes were then processed at room temperature overnight using the iBlot Western system (Thermofisher) containing primary antibodies, iBind wash solution and horseradish peroxidase-conjugated secondary antibodies. Blots were developed using Clarity Western ECL (Bio-RAD), and images were captured using a Fusion FX imaging machine (Vilber).
The effect of modulators that target the HER signalling pathway (TKIs such as Lapatinib, Gefitinib and Erlotinib) on EGR4-S expression was examined.
For assay [3], the system named is EGR4-S in HER2+ breast cancer cells (SKBR3). The experiment in a line: EGR4-S expression in cells cultured in increasing Lapatinib concentrations over 7 weeks (FIG. 12). It is filed as cell-based. Here is the method: as §1
The cell line was cultured in increasing concentrations of Lapatinib over the course of seven weeks to investigate whether EGR4-S expression would be affected during prolonged treatment with Lapatinib.

Assay [4] has as its system EGR4-S in HER2+ cells. The assay is described as follows: Lapatinib treatment of HER2+ cells with elevated or lowered HSF1 (FIG. 15A/B). It is filed as cell-based. How it is done: as §1

With `C[S+]([O-])CCCCN=C=S` (stereo not shown) [Sulfurophane, Sulforaphane], the HSP70 expression entry in assay [1] (greater treatment concentrations) is “increased”. Moreover, in assay [1] (higher concentrations), the EGR4-S expression entry is “reductions” and the pHER2 expression result is listed as “reductions”. For the same molecule, the EGR4-S expression entry in assay [1] (higher concentrations, listed as Sulforaphane) is on record as “reducing EGR4-S expression”.
On to `COc1cc2ncnc(Nc3ccc(F)c(Cl)c3)c2cc1OCCCN1CCOCC1` [Gefitinib], for which the EGR4-S expression result in assay [2] was “regulated”.
Regarding `CS(=O)(=O)CCNCc1ccc(-c2ccc3ncnc(Nc4ccc(OCc5cccc(F)c5)c(Cl)c4)c3c2)o1` [Lapatinib], the EGR4-S expression entry in assay [3] (SKBR3, week 5, 300 nM Lapatinib, vs control) was “less EGR4-S compared to the control”; in assay [3] (SKBR3, week 7, 600 nM Lapatinib), “returning to control levels”; in assay [3] (after 3 weeks of treatment, vs untreated control) it was “reduced levels of EGR4-S”; in assay [3] (prolonged treatment, vs untreated control cells), “unchanged”; in assay [4] (HER2+ cells, dose-dependent, FIG. 15A) it was “reduced EGR4-S expression in a dose-dependent manner”; in assay [2] it was “regulated”. The “response of EGR4-S expression” value in assay [4] (HSF1 levels lowered, equivalent doses, FIG. 15B) is “did not respond as readily”. Moreover, in assay [4] (with elevated HSF1, FIG. 15A), the “reduction of EGR4-S expression” value is given as “more pronounced”. In addition, in assay [2] (different types of HER2+ breast cancer cells, FIG. 3B), the “EGR4-S expression over time” value is given as “maintained over time”.
Take `CCNC(=O)c1noc(-c2cc(C(C)C)c(O)cc2O)c1-c1ccc(CN2CCOCC2)cc1` [AUY922]: in assay [1] (higher concentrations), the EGR4-S expression result is reported as “decreased; also recorded: reducing EGR4-S expression”, the HSP105 expression entry was “increased”, the pHER2 expression result was “decreased” and the “total HER2 expression” value is on record as “decreased”.
Turning to `C#Cc1cccc(Nc2ncnc3cc(OCCOC)c(OCCOC)cc23)c1` [Erlotinib], the EGR4-S expression result in assay [2] is “regulated”.

Source of the values: US20230348987A1, “METHODS AND COMPOSITIONS FOR TREATING CANCER” (PROMETTRE RESEARCH PTY LTD, priority 2020, published 2023).
